Key:
[1] = test system: 4T1 (a metastatic murine breast cancer cell line); experiment: In vitro cytotoxicity evaluation, 4T1; type: cell-based; conditions: Mus musculus; 4T1 cells; average ± SEM of minimum three individual experiments
Source text: (§1) […] Cell line MDA-MB-231 (a human triple negative breast cancer cell line) and cell line 4T1 (a metastatic murine breast cancer cell line) were used for testing.

[2] = test system: MDA-MB-231 (a human triple negative breast cancer cell line); experiment: In vitro cytotoxicity evaluation, MDA-MB-231; type: cell-based; conditions: MDA-MB-231 cells, average ± SEM of minimum three individual experiments
Source text: as §1

SMILES | IC50 [1] | IC50 [2]
O=C(O)c1nn(-c2ccc(N(Cc3ccccc3)Cc3ccccc3)cc2)c2ccccc12 [Compound A-1] | > 25 µM | > 25 µM
COC(=O)C(O)(CO)COC(=O)c1nn(-c2ccc(N(Cc3ccc(Cl)cc3)Cc3ccc(Cl)cc3)cc2)c2ccccc12 (centres unmarked) [Compound A-6] | 4.8 ± 1.01 µM | 4.51 ± 0.95 µM
COC(=O)C(O)(CO)COC(=O)c1nn(-c2ccc(N(Cc3ccccc3)Cc3ccccc3)cc2)c2ccccc12 (centres unmarked) [Compound A-4] | 4.9 ± 0.42 µM | 2.33 ± 0.48 µM
C=C(COC(=O)c1nn(-c2ccc(N(Cc3ccc(F)cc3)Cc3ccc(F)cc3)cc2)c2ccccc12)C(=O)OC [Compound A-7] | 10.8 ± 2.28 µM | > 25 µM
C=C(COC(=O)c1nn(-c2ccc(N(Cc3ccc(OC)cc3)Cc3ccc(OC)cc3)cc2)c2ccccc12)C(=O)OC [Compound A-9] | > 25 µM | > 25 µM
C=C(COC(=O)c1nn(-c2ccc(N(Cc3ccc(Cl)cc3)Cc3ccc(Cl)cc3)cc2)c2ccccc12)C(=O)OC [Compound A-5] | > 25 µM | > 25 µM
COC(=O)C(O)(CO)COC(=O)c1nn(-c2ccc(N(Cc3ccc(F)cc3)Cc3ccc(F)cc3)cc2)c2ccccc12 (centres unmarked) [Compound A-8] | 2.87 ± 0.86 µM | 3.02 ± 0.68 µM
C=C(COC(=O)c1nn(-c2ccc(N(Cc3ccccc3)Cc3ccccc3)cc2)c2ccccc12)C(=O)OC [Compound A-3] | > 25 µM | > 25 µM
COC(=O)c1nn(-c2ccc(N(Cc3ccccc3)Cc3ccccc3)cc2)c2ccccc12 [Compound A-2] | > 25 µM | > 25 µM
COC(=O)C(O)(CO)COC(=O)c1nn(-c2ccc(N(Cc3ccc(OC)cc3)Cc3ccc(OC)cc3)cc2)c2ccccc12 (centres unmarked) [Compound A-10] | 7.12 ± 1.13 µM | 4.96 ± 1.19 µM

Source: patent US20190040016A1, “INDOLE AND INDAZOLE COMPOUNDS AND THERAPEUTIC USES THEREOF” (REGENTS OF THE UNIVERSITY OF MINNESOTA, priority 2016, published 2019)
